Measurements from US20060276464A1, “Diarylsulfone sulfonamides and use thereof” (Wyeth, priority 2005, published 2006).
Where “and” joins values, the source holds several entries; their conditions need not be identical. Equal values may be shown once. Read-outs that look alike come from different tables or passages of the source.

Legend:
[1] = target: T1, SFRP-1 (Homo sapiens, UniProt Q8N474); test: Fluorescence polarization binding assay (competitive displacement of a probe compound from SFRP-1); conditions: fluorescence anisotropy, 45 nM SFRP-1, 20 nM probe;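 further: test compound competes with a fluorescent probe held by SFRP-1, seen as a drop in probe anisotropy after incubation in darkness, with anisotropy as function of rising compound dose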
T1 sequence (Q8N474 32-314): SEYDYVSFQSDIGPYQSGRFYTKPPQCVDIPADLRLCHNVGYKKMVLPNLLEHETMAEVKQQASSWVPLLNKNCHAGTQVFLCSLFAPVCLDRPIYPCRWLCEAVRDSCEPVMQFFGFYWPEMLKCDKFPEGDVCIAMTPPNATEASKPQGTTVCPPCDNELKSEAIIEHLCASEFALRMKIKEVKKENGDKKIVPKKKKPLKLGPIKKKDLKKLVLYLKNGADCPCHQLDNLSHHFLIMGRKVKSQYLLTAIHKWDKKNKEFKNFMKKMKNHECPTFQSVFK

[2] = target: T1, SFRP-1; test: Cell-based assay for in vitro measurement of SFRP-1/SARP2 antagonist activity (U2OS cells co-transfected with 16x TCF-tk-Luciferase reporter, Wnt and hSFRP-1); conditions: for fold induction at 15 µM / fold induction at 10 µM: U2OS; for fold induction at 10 µM: read-out: Fold Induction with SFRP-1, U2OS cells, single dose 10 μM, luciferase reporter, fold induction over SFRP-1 control;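 on all read-outs here: U2OS cells co-transfected with a TCF-tk luciferase reporter, a Wnt vector, hSFRP-1 or empty vector and CMV-βgal, luciferase luminescence read in cell lysates alongside βgal activity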
[3] = read-out: Fold Induction with SFRP-1, Conc 15 μM, single dose, luciferase reporter, fold induction over SFRP-1 control, cells with SFRP-1
[4] = read-out: Fold Induction without SFRP-1, Conc 15 μM, single dose, luciferase reporter, cells without SFRP-1 (specificity control)
[5] = read-out: Fold Induction with SFRP-1, Conc 15 μM, with SFRP-1, fold induction over SFRP-1 control, single dose
[6] = read-out: Fold Induction without SFRP-1, Conc 15 μM, without SFRP-1, single dose

Row | Compound | IC50 [1] | fold induction at 15 µM [2, 3] | fold induction at 15 µM [2, 4] | EC50 [2] | fold induction at 10 µM [2] | fold induction at 15 µM [2, 5] | fold induction at 15 µM [2, 6]
1 | CNc1ccc(S(=O)(=O)c2ccc(C(C)C)c(S(=O)(=O)NCCc3ccccn3)c2)c(C)c1 [Example 599, 2-isopropyl-5-{[2-methyl-4-(methylamino)phenyl]sulfonyl}-N-(2-pyridin-2-ylethyl)benzenesulfonamide] | 0.6 µM | 4.2 | 1.4 |  |  |  | 
2 | Cc1nn(C)c(Cl)c1S(=O)(=O)c1ccc(C(C)C)c(S(=O)(=O)NCCc2ccccn2)c1 [Example 512, 5-[(5-chloro-1,3-dimethyl-1H-pyrazol-4-yl)sulfonyl]-2-isopropyl-N-(2-pyridin-2-ylethyl)benzenesulfonamide] | 1 µM | 3.1 | 1.1 |  |  |  | 
3 | CN(CCNS(=O)(=O)c1cc(S(=O)(=O)c2ccccc2)ccc1C(F)(F)F)C(=O)c1ccco1 [Example 837, N-Methyl-N-[2-({[5-(phenylsulfonyl)-2-(trifluoromethyl)phenyl]sulfonyl}amino)ethyl]-2-furamide] | 0.18 µM |  |  | 0.644 µM | 3.4 |  | 
4 | CN(CCNS(=O)(=O)c1cc(S(=O)(=O)c2ccccc2)ccc1C(F)(F)F)C(=O)N[C@H]1CCN(C(=O)OC(C)(C)C)C1 [Example 926, tert-butyl (3S)-3-[({methyl[2-({[5-(phenylsulfonyl)-2-(trifluoromethyl)phenyl]sulfonyl}amino)ethyl]amino}carbonyl)amino]pyrrolidine-1-carboxylate] | 0.5 µM |  |  | 1.36 µM | 3.6 |  | 
5 | COc1ccccc1C(=O)N1CCC(NS(=O)(=O)c2cc(S(=O)(=O)c3ccccc3)ccc2C)CC1 [Example 462, N-[1-(2-methoxybenzoyl)piperidin-4-yl]-2-methyl-5-(phenylsulfonyl)benzenesulfonamide] | 2 µM |  |  |  |  | 2.9 | 1
6 | CC(C)c1ccc(S(=O)(=O)c2cccc(OC(F)(F)F)c2)cc1S(=O)(=O)NCCc1ccccn1 [Example 506, 2-isopropyl-N-(2-pyridin-2-ylethyl)-5-{[3-(trifluoromethoxy)phenyl]sulfonyl}benzenesulfonamide] | 2.4 µM | 2.7 | 1 |  |  |  | 
7 | CC(C)c1ccc(S(=O)(=O)c2ccc(F)c(Cl)c2)cc1S(=O)(=O)NCCc1ccccn1 [Example 595, 5-[(3-chloro-4-fluorophenyl)sulfonyl]-2-isopropyl-N-(2-pyridin-2-ylethyl)benzenesulfonamide] | 1.2 µM | 3.4 | 1.4 |  |  |  | 
8 | Cc1ccc(S(=O)(=O)c2ccccc2)cc1S(=O)(=O)NC1CCSCC1 [Example 798, 2-methyl-5-(phenylsulfonyl)-N-(tetrahydro-2H-thiopyran-4-yl)benzenesulfonamide] | 4 µM |  |  |  | 1.8 |  | 
9 | Cc1ccc(S(=O)(=O)c2ccccc2)cc1S(=O)(=O)NC1CCN(S(=O)(=O)c2ccccc2)CC1 [Example 448, 2-methyl-5-(phenylsulfonyl)-N-[1-(phenylsulfonyl)piperidin-4-yl]benzenesulfonamide] | 0.12 µM and 0.17 µM |  |  |  |  | 2 | 1.2
10 | O=C(O)C1CCC(NS(=O)(=O)c2cc(S(=O)(=O)c3ccccc3)ccc2C(F)(F)F)CC1 (stereo not shown) [Example 968, 4-({[5-(phenylsulfonyl)-2-(trifluoromethyl)phenyl]sulfonyl}amino)cyclohexanecarboxylic acid] | 1.4 µM |  |  |  | 2.4 |  | 
11 | CN(CCNS(=O)(=O)c1cc(S(=O)(=O)c2ccccc2)ccc1C(F)(F)F)C(=O)c1ccncc1 [Example 850, N-Methyl-N-[2-({[5-(phenylsulfonyl)-2-(trifluoromethyl)phenyl]sulfonyl}amino)ethyl]isonicotinamide] | 0.6 µM |  |  | 1.53 µM | 3.5 |  | 
12 | CC(C)c1ccc(S(=O)(=O)c2ccc(NCCC#N)cc2)cc1S(=O)(=O)NC1CCOCC1 [Example 535, 5-({4-[(2-cyanoethyl)amino]phenyl}sulfonyl)-2-isopropyl-N-(tetrahydro-2H-pyran-4-yl)benzenesulfonamide] | 0.4 µM | 3.8 | 1.2 |  |  |  | 
13 | CC(C)c1ccc(S(=O)(=O)c2ccc(F)cc2)cc1S(=O)(=O)NCC1CCCO1 (stereo not shown) [Example 532, 5-[(4-fluorophenyl)sulfonyl]-2-isopropyl-N-(tetrahydrofuran-2-ylmethyl)benzenesulfonamide] | 4 µM | 2.8 | 1.1 |  |  |  | 
14 | N#CN1CCC(NS(=O)(=O)c2cc(S(=O)(=O)c3ccccc3)ccc2Cl)CC1 [Example 651, 2-chloro-N-(1-cyanopiperidin-4-yl)-5-(phenylsulfonyl)benzenesulfonamide] | 0.4 µM | 2.9 | 0.9 |  |  |  | 
15 | O=S(=O)(N[C@H]1CCNC1)c1cc(S(=O)(=O)c2ccccc2)ccc1C(F)(F)F [Example 796, 5-(phenylsulfonyl)-N-[(3S)-pyrrolidin-3-yl]-2-(trifluoromethyl)benzenesulfonamide] | 0.6 µM |  |  | 1.35 µM | 4.3 |  | 
16 | CNc1ccc(S(=O)(=O)c2ccc(C(C)C)c(S(=O)(=O)NCCc3ccccn3)c2)cc1 [Example 357, 2-isopropyl-5-{[4-(methylamino)phenyl]sulfonyl}-N-(2-pyridin-2-ylethyl)benzenesulfonamide] | 0.3 µM |  |  |  |  | 4.2 | 1.1
17 | CN(CCNS(=O)(=O)c1cc(S(=O)(=O)c2ccccc2)ccc1C(F)(F)F)C(=O)N(C)C1CCNCC1 [Example 1007, N-[2-(methyl{[methyl(piperidin-4-yl)amino]carbonyl}amino)ethyl]-5-(phenylsulfonyl)-2-(trifluoromethyl)benzenesulfonamide] | 0.9 µM |  |  | 1.52 µM |  |  | 
18 | Cc1ccc(S(=O)(=O)c2ccc(F)cc2)cc1S(=O)(=O)NC1CCN(C(=O)N2CCOCC2)CC1 [Example 603, 5-[(4-fluorophenyl)sulfonyl]-2-methyl-N-[1-(morpholin-4-ylcarbonyl)piperidin-4-yl]benzenesulfonamide] | 8 µM | 2.4 | 0.9 |  |  |  | 
19 | COc1ccc(OC)c(S(=O)(=O)c2ccc(C)c(S(=O)(=O)NCCc3ccccn3)c2)c1 [Example 421, 5-[(2,5-dimethoxyphenyl)sulfonyl]-2-methyl-N-(2-pyridin-2-ylethyl)benzenesulfonamide] | 9 µM |  |  |  |  | 2.2 | 1.2
20 | Cc1c(Br)cccc1S(=O)(=O)c1ccc(C(C)C)c(S(=O)(=O)NCCc2ccccn2)c1 [Example 577, 5-[(3-bromo-2-methylphenyl)sulfonyl]-2-isopropyl-N-(2-pyridin-2-ylethyl)benzenesulfonamide] | 0.7 µM | 1.9 | 1.2 |  |  |  | 
21 | CNc1ccccc1S(=O)(=O)c1ccc(C(F)(F)F)c(S(=O)(=O)NC2CCNCC2)c1 [Example 861, 5-{[2-(methylamino)phenyl]sulfonyl}-N-piperidin-4-yl-2-(trifluoromethyl)benzenesulfonamide] | 0.6 µM |  |  | 1.78 µM | 4 |  | 
22 | Cc1ccc(S(=O)(=O)c2ccccc2)cc1S(=O)(=O)NC1CCN(S(=O)(=O)c2cccs2)CC1 [Example 482, 2-methyl-5-(phenylsulfonyl)-N-[1-(2-thienylsulfonyl)piperidin-4-yl]benzenesulfonamide] | 0.8 µM |  |  |  |  | 3.2 | 1.1
23 | CC(C)c1ccc(S(=O)(=O)c2ccccc2)cc1S(=O)(=O)NC1CCC(C(=O)O)CC1 (stereo not shown) [Example 953, 4-({[2-isopropyl-5-(phenylsulfonyl)phenyl]sulfonyl}amino)cyclohexanecarboxylic acid] | 7 µM |  |  |  | 1.5 |  | 
24 | CC(C)(C)NC(=O)N1CCC(NS(=O)(=O)c2cc(S(=O)(=O)c3ccccc3)ccc2Cl)CC1 [Example 649, N-(tert-butyl)-4-({[2-chloro-5-(phenylsulfonyl)phenyl]sulfonyl}amino)piperidine-1-carboxamide] | 1.6 µM | 3 | 1.1 |  |  |  | 
25 | CN(C)C(=O)CN1CCC(NS(=O)(=O)c2cc(S(=O)(=O)c3ccccc3)ccc2C(F)(F)F)CC1 [Example 1085, N,N-dimethyl-2-[4-({[5-(phenylsulfonyl)-2-(trifluoromethyl)phenyl]sulfonyl}amino)piperidin-1-yl]acetamide] | 0.15 µM |  |  | 0.746 µM |  |  | 
26 | CCc1ccc(S(=O)(=O)c2ccc(F)cc2)cc1S(=O)(=O)NC(C)C(O)c1ccccc1 (stereo not drawn) [Example 392, 2-ethyl-5-[(4-fluorophenyl)sulfonyl]-N-[(trans)-2-hydroxy-1-methyl-2-phenylethyl]benzenesulfonamide] | 4 µM |  |  |  |  | 2.8 | 1
27 | CNc1ccc(S(=O)(=O)c2ccc(C(C)C)c(S(=O)(=O)NC3CCOCC3)c2)cc1 [Example 358, 2-isopropyl-5-{[4-(methylamino)phenyl]sulfonyl}-N-(tetrahydro-2H-pyran-4-yl)benzenesulfonamide] | 0.6 µM |  |  |  |  | 2.9 | 1
